Results from paper PMC3813752 (PLoS ONE, 2013).
Several values for one entry are separate records, joined by “and”; a condition that tells them apart may be missing. Equal entries are not always repeated. Entries after “also recorded” stand apart in the source; their conditions may differ. Where two headings read alike, the source gives them in different places. Marks after values point to notes of the source that are not given here.

Key:
[1] = target: T1, human CB1 receptor (Homo sapiens, UniProt P21554); experiment: biochemical; format: binding; details: for Ki: membranes of CHO cells expressing human CB1, three independent experiments in duplicates, read-out: Ki CB1, heterologous competition vs. [3H]CP55,940; for increase in CB1 receptor affinity compared to the unmethylated parent biphenyl: 60a vs 60, 61a vs 61
T1 sequence (P21554 whole entry): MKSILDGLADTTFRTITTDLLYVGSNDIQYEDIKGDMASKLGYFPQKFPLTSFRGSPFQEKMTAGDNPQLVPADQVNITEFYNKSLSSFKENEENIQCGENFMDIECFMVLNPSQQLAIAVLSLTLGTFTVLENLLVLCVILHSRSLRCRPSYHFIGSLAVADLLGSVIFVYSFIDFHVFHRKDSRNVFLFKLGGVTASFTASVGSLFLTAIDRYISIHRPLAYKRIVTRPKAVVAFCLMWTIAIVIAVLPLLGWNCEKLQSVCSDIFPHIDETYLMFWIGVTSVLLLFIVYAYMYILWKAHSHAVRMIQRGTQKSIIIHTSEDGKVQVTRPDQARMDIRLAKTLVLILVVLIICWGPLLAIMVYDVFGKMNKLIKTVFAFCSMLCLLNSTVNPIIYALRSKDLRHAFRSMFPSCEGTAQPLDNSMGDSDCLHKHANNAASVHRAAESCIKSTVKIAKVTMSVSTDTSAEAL

[2] = target: T2, human CB2 receptor (Homo sapiens, UniProt P34972); experiment: Radioligand binding (heterologous competition) vs. [3H]CP55,940 at CB2
T2 sequence (P34972 whole entry): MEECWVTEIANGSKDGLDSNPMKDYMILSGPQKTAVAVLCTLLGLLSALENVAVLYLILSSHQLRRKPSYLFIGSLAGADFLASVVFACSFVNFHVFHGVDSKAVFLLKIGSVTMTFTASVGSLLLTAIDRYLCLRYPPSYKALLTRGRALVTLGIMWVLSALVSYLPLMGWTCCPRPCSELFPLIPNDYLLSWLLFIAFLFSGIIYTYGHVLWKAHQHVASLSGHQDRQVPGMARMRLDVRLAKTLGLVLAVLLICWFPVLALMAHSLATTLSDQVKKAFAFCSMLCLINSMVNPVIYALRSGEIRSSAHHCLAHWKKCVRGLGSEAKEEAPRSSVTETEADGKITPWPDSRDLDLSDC

[3] = target: T1, human CB1 receptor; experiment: cAMP accumulation assay, CHO cells expressing CB1; format: cell-based; details: for efficacy CB1, cAMP accumulation assay: at 10 µM, compared to max. effect of full agonist CP55,940 (1 µM) = 100%; for functional property at CB1 (agonist/antagonist): in words, standard ligands partly from the literature
[4] = target: T2, human CB2 receptor; experiment: cAMP accumulation assay, CHO cells expressing CB2; format: cell-based; details: for efficacy CB2, cAMP accumulation assay: at 10 µM, compared to max. effect of full agonist CP55,940 (1 µM) = 100%; for functional property at CB2 (agonist/antagonist): in words, standard ligands partly from the literature
[5] = target: T3, human GPR18 (Homo sapiens, UniProt Q14330); details: for agonist effect on β-arrestin recruitment at GPR18: test compound 10 µM, related to effect of Δ9-THC 10 µM = 100%; for functional property at GPR18 (agonist/antagonist): in words
T3 sequence (Q14330 1-331): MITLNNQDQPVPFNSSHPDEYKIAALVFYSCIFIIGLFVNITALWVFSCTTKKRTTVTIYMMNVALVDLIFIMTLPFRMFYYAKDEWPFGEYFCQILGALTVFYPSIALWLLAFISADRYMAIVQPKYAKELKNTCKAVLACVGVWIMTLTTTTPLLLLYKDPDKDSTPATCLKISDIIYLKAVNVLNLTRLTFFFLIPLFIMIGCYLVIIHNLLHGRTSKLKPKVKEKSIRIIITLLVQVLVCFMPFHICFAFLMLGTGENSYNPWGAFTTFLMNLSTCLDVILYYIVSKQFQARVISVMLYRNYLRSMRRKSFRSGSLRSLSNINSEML

[6] = target: T3, human GPR18; experiment: cell-based; details: for inhibition at 10 µM: CHO, read-out: % inhibition of Δ9-THC (10 µM)-induced β-arrestin recruitment at GPR18, test compound at 10 µM; for IC50: GPR18 IC50, β-arrestin recruitment, antagonist mode vs. Δ9-THC (10 µM)
[7] = target: human GPR55 (Homo sapiens, UniProt Q9Y2T6); experiment: β-arrestin recruitment assay (PathHunter), CHO cells expressing GPR55; details: for inhibition at 10 µM: CHO; for IC50: GPR55 IC50, β-arrestin recruitment, antagonist mode vs. LPI (1 µM); for agonist effect on β-arrestin recruitment at GPR55: test compound 10 µM, related to effect of LPI 1 µM = 100%; for functional property at GPR55 (agonist/antagonist): in words
human GPR55, sequence (Q9Y2T6 whole entry): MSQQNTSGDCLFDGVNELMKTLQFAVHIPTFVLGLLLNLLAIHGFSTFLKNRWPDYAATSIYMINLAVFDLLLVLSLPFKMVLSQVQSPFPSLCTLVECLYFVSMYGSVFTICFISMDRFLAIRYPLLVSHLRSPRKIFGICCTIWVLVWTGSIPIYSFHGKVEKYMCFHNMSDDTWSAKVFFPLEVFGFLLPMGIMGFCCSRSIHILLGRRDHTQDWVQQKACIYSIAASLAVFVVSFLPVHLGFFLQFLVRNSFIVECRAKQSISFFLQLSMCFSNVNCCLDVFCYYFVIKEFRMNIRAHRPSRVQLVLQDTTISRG

[8] = target: T1, human CB1 receptor; details: determined at 100 µM; cited from earlier work
[9] = target: T2, human CB2 receptor; details: in words; cited from earlier work
[10] = membranes of CHO cells expressing human CB2, three independent experiments in duplicates, read-out: Ki CB2, heterologous competition vs. [3H]CP55,940
[11] = read-out: % inhibition of LPI (1 µM)-induced β-arrestin recruitment at GPR55, test compound at 10 µM
[12] = read-out: % inhibition of LPI (1 µM)-induced β-arrestin recruitment at GPR55
[13] = Ki CB2, heterologous competition vs. [3H]CP55,940, membranes of CHO cells expressing human CB2, three independent experiments in duplicates
[14] = inhibition of forskolin-stimulated cAMP, CHO-hCB1, read-out: EC50 CB1, cAMP accumulation assay

Row | SMILES | Ki [1] | Ki [2, 10] | EC50 [3] | EC50 [4] | agonist effect on β-arrestin recruitment at GPR18 [5] | EC50 [6] | inhibition at 10 µM [6] | IC50 [6] | EC50 [7] | inhibition at 10 µM [7, 11] | IC50 [7] | agonist effect on β-arrestin recruitment at GPR55 [7] | Ki [2, 13] | functional property at CB1 (agonist/antagonist) [3] | functional property at CB2 (agonist/antagonist) [4] | functional property at GPR18 (agonist/antagonist) [5] | functional property at GPR55 (agonist/antagonist) [7] | other results
1 | CCCCCc1ccc(O)c(-c2cc(CCCCC)ccc2O)c1 [Compound 44] | 3.13 ± 1.13 µM | 0.833 ± 0.123 µM | 4.54 ± 0.83 µM | 2.3 ± 0.71 µM | 0% | > 10 µM | 128% | 12 ± 2.7 µM | > 10 µM | 2% | > 10 µM | 26% |  |  |  |  |  | 
2 | CCCCCCCCc1ccc(O)c(-c2cc(CCC)ccc2O)c1 [Compound 63] | 1.66 ± 0.45 µM | 0.955 ± 0.418 µM |  |  | 0% | > 10 µM | 123% | 10.7 ± 0.7 µM | > 10 µM | 0% | > 10 µM | 0% |  |  |  |  |  | efficacy CB1, cAMP accumulation assay [3]: (73%)^b; efficacy CB2, cAMP accumulation assay [4]: (52%)^b
3 | CCCCCCc1ccc(O)c(-c2cc(CCCC)ccc2O)c1 [Compound 65] | 2.6 ± 0.09 µM |  |  |  | 0% | > 10 µM | 116% | 11 ± 0.7 µM | > 10 µM | 15% | > 10 µM | 36% |  |  |  |  |  | Ki ([2]; vs. [3H]CP55,940, read-out: Ki CB2): 0.67 µM; efficacy CB1, cAMP accumulation assay [3]: (95%)^b; efficacy CB2, cAMP accumulation assay [4]: (49%)^b
4 | C=CCc1ccc(O)c(-c2cc(CC=C)ccc2O)c1 [Compound 9, 4-allyl-2-(5-allyl-2-hydroxyphenyl)phenol, reference compound] |  |  |  |  | 0% | > 10 µM | 2% | > 10 µM | > 10 µM |  | > 10 µM | 11% |  |  |  |  |  | efficacy CB1, cAMP accumulation assay [8]: 62%; inhibition at 10 µM [7, 12]: 0%
5 | CCCCCCc1ccc(O)c(-c2cc(CCC)ccc2O)c1 [Compound 61, 5-Hexyl-5′-propylbiphenyl-2,2′-diol] | 0.145 ± 0.048 µM |  | 0.829 ± 0.278 µM | 0.159 ± 0.018 µM | 0% | > 10 µM | 139% | ~10.4 µM and 10.4 µM | > 10 µM | 45% | > 10 µM and ~10 µM | 32% | 0.0294 ± 0.009 µM | full agonistic effects; also recorded: full agonists; also recorded: agonist | almost full efficacy; also recorded: partial agonists; also recorded: agonist | antagonist | antagonist | selectivity for CB1 versus GPR18 ([5]; Ki CB1 vs estimated GPR18 IC50): approximately 70 fold; selectivity for CB2 versus GPR18 ([5]; Ki CB2 vs estimated GPR18 IC50): ~350 fold
6 | C=CCc1ccc(O)c(-c2ccc(OC)c(CC=C)c2)c1 [Compound 11, 4′-O-Methylhonokiol, reference compound] |  |  |  |  | 0% | > 10 µM | 37% | > 10 µM | > 10 µM | 87% | 7.77 ± 0.97 µM | 4% | 0.0433 ± 0.0171 µM |  | agonist | antagonist | antagonist | functional property at CB2 [9]: inverse agonist
7 | CCCCCc1ccc(O)c(-c2cc(CCC)ccc2OC)c1 [Compound 60a, 2-(2-methoxy-5-propyl-phenyl)-4-pentylphenol] | 0.0173 ± 0.0014 µM |  |  | 0.0399 ± 0.01 µM | 22% | > 10 µM | 47% | > 10 µM and ~10 µM | > 10 µM |  | 6.93 ± 1.06 µM | 0% | 0.031 ± 0.0099 µM | Full agonists; also recorded: agonist | Full agonists; also recorded: agonist | antagonist | antagonist | increase in CB1 receptor affinity compared to the unmethylated parent biphenyl [1]: 21 fold; EC50 [3, 14]: 0.0375 ± 0.0056 µM; inhibition at 10 µM [7, 12]: 66%
8 | CCCCCc1ccc(O)c(-c2cc(CCC)ccc2O)c1 [Compound 60, 5-Pentyl-5′-propylbiphenyl-2,2′-diol] | 0.362 ± 0.113 µM |  | 0.971 ± 0.089 µM | 0.258 ± 0.013 µM | 0% | > 10 µM | 118% | 14.5 ± 2.8 µM | > 10 µM | 45% | > 10 µM and ~10 µM | 28% | 0.0371 ± 0.0078 µM | full agonistic effects; also recorded: full agonists; also recorded: agonist | partial agonists; also recorded: almost full efficacy; also recorded: agonist | antagonist | antagonist | 
9 | CCCCc1ccc(O)c(-c2cc(CCCC)ccc2O)c1 [Compound 43] | 2.7 ± 1.2 µM | 1.59 ± 0.04 µM | 7.11 ± 1.43 µM | 0.378 ± 0.148 µM | 0% | > 10 µM | 74% | 12 ± 1.4 µM | > 10 µM | 0% | > 10 µM | 29% |  |  |  |  |  | 
10 | CCCCCCc1ccc(OC)c(-c2cc(CCC)ccc2O)c1 [Compound 61b, 5′-Hexyl-2′-methoxy-5-propylbiphenyl-2-ol] | 0.313 ± 0.125 µM | 0.281 ± 0.101 µM |  | 0.595 ± 0.15 µM | 0% | > 10 µM | 22% | > 10 µM | > 10 µM | 120% | 3.25 ± 0.29 µM | 0% |  | CB1-antagonistic activity; also recorded: antagonist | partial agonistic activity; also recorded: agonist | antagonist | antagonist | reduction of CB1 receptor affinity compared to 61 [1]: 2 fold; Kb [3]: 1.85 µM
11 | CCCCCc1ccc(O)c(-c2cc(CCCC)ccc2O)c1 [Compound 64] | 3.61 ± 1.35 µM | 0.234 ± 0.039 µM |  |  | 0% | > 10 µM | 94% | 13.9 ± 0.9 µM | > 10 µM | 21% | > 10 µM | 15% |  |  |  |  |  | efficacy CB1, cAMP accumulation assay [3]: (122%)^b; efficacy CB2, cAMP accumulation assay [4]: (68%)^b
12 | CCCCCCc1ccc(O)c(-c2cc(CCC)ccc2OC)c1 [Compound 61a, 5-Hexyl-2′-methoxy-5′-propylbiphenyl-2-ol] | 0.00957 ± 0.00543 µM |  |  | 0.0385 ± 0.017 µM | 0% | > 10 µM | 30% | > 10 µM | > 10 µM |  | ~10 µM | 0% | 0.0238 ± 0.0071 µM | Full agonists; also recorded: agonist | Full agonists; also recorded: agonist | antagonist | antagonist | increase in CB1 receptor affinity of 61a compared to isomer 61b [1]: 33 fold; increase in CB1 receptor affinity compared to the unmethylated parent biphenyl [1]: 15 fold; increase in CB2 receptor affinity of 61a compared to isomer 61b [2]: 12 fold; EC50 [3, 14]: 0.159 ± 0.076 µM; inhibition at 10 µM [7, 12]: 58%
